# Results reported in PubChem BioAssay AID1963967 (Molecular Pharmacology Branch, DTP, NCI, 2024).
# “And” between values parts separate entries of the source, which are not always exact repeats. Identical values can stand only once.
# Test system: 855422-203-R-J1-PDC spheroids with HUVEC/MSC, viability
# Assay: Anticancer human tumor 855422-203-R-J1-PDC patient-derived bladder carcinoma cell line growth inhibition [PI3K]
# Settings: for viability, T/C: stronger effect = lower value
# In short: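 Complex 3D spheroids (cancer cells + endothelial HUVEC + mesenchymal stem cells); drug pairs of targeted agent x inavolisib/alpelisib/duvelisib/copanlisib; half-log series from ~Cmax, max 10 microM if Cmax unknown; endpoint viability.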
# [1] = curve of first compound, second compound 0.0316 µM
# [2] = curve of first compound, second compound 0.1 µM
# [3] = curve of first compound, second compound 0.316 µM
# [4] = curve of first compound, second compound 1 µM
# [5] = second compound 0.0316 µM, first compound 0.0316 µM
# [6] = second compound 0.0316 µM, first compound 0.1 µM
# [7] = second compound 0.0316 µM, first compound 0.316 µM
# [8] = second compound 0.0316 µM, first compound 1 µM
# [9] = second compound 0.0316 µM, first compound 3.16 µM
# [10] = second compound 0.0316 µM, first compound 10 µM
# [11] = second compound 0.1 µM, first compound 0.0316 µM
# [12] = second compound 0.1 µM, first compound 0.1 µM
# [13] = second compound 0.1 µM, first compound 0.316 µM
# [14] = second compound 0.1 µM, first compound 1 µM
# [15] = second compound 0.1 µM, first compound 3.16 µM
# [16] = second compound 0.1 µM, first compound 10 µM
# [17] = second compound 0.316 µM, first compound 0.0316 µM
# [18] = second compound 0.316 µM, first compound 0.1 µM
# [19] = second compound 0.316 µM, first compound 0.316 µM
# [20] = second compound 0.316 µM, first compound 1 µM
# [21] = second compound 0.316 µM, first compound 3.16 µM
# [22] = second compound 0.316 µM, first compound 10 µM
# [23] = second compound 1 µM, first compound 0.0316 µM
# [24] = second compound 1 µM, first compound 0.1 µM
# [25] = second compound 1 µM, first compound 0.316 µM
# [26] = second compound 1 µM, first compound 1 µM
# [27] = second compound 1 µM, first compound 3.16 µM
# [28] = second compound 1 µM, first compound 10 µM
# 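Note: agents incubated with spheroids for one week before read-out.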
# 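Throughout, for viability, T/C: 100% = DMSO vehicle-treated control wells.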
smiles,measurement,setting,value
CC(C)NCC(C(=O)N1CCN(c2ncnc3c2C(C)CC3O)CC1)c1ccc(Cl)cc1 (stereo unspecified) + Cc1nc(NC(=O)N2CCCC2C(N)=O)sc1-c1ccnc(C(C)(C)C(F)(F)F)c1,IC50,[1],1.36 µM
same,IC50,[2],1.08 µM
same,IC50,[3],0.875 µM
same,IC50,[4],0.188 µM
same,IC50,"curve of first compound, second compound 3.16 µM",< 0.0316 µM
same,IC50,"curve of first compound, second compound 10 µM",< 0.0316 µM
same,"viability, T/C",[5],94.8%
same,"viability, T/C",[6],77.4%
same,"viability, T/C",[7],80.7%
same,"viability, T/C",[8],52.2%
same,"viability, T/C",[9],35.9%
same,"viability, T/C",[10],20%
same,"viability, T/C",[11],88.6%
same,"viability, T/C",[12],80.6%
same,"viability, T/C",[13],67.9%
same,"viability, T/C",[14],51.1%
same,"viability, T/C",[15],33.7%
same,"viability, T/C",[16],19.3%
same,"viability, T/C",[17],85.6%
same,"viability, T/C",[18],69%
same,"viability, T/C",[19],68.3%
same,"viability, T/C",[20],47.2%
same,"viability, T/C",[21],30.8%
same,"viability, T/C",[22],16.1%
same,"viability, T/C",[23],58%
same,"viability, T/C",[24],55%
same,"viability, T/C",[25],42.4%
same,"viability, T/C",[26],42.5%
same,"viability, T/C",[27],24.2%
same,"viability, T/C",[28],11.1%
same,"viability, T/C","second compound 3.16 µM, first compound 0.0316 µM",39.8%
same,"viability, T/C","second compound 3.16 µM, first compound 0.1 µM",37%
same,"viability, T/C","second compound 3.16 µM, first compound 0.316 µM",30.7%
same,"viability, T/C","second compound 3.16 µM, first compound 1 µM",30.2%
same,"viability, T/C","second compound 3.16 µM, first compound 3.16 µM",17.5%
same,"viability, T/C","second compound 3.16 µM, first compound 10 µM",7.85%
same,"viability, T/C","second compound 10 µM, first compound 0.0316 µM",20.2%
same,"viability, T/C","second compound 10 µM, first compound 0.1 µM",15.3%
same,"viability, T/C","second compound 10 µM, first compound 0.316 µM",17.8%
same,"viability, T/C","second compound 10 µM, first compound 1 µM",14.2%
same,"viability, T/C","second compound 10 µM, first compound 3.16 µM",10.5%
same,"viability, T/C","second compound 10 µM, first compound 10 µM",3.97%
CC1(C)CCC(CN2CCN(c3ccc(C(=O)NS(=O)(=O)c4ccc(NCC5CCOCC5)c([N+](=O)[O-])c4)c(Oc4cnc5[nH]ccc5c4)c3)CC2)=C(c2ccc(Cl)cc2)C1 + CC(Nc1ccc2c(c1)OCCn1cc(N3C(=O)OCC3C(F)F)nc1-2)C(N)=O,IC50,"curve of first compound, second compound 0.00316 µM",4.62 µM
same,IC50,"curve of first compound, second compound 0.01 µM",4.48 µM
same,IC50,[1],4.75 µM
same,IC50,[2],4.65 µM
same,IC50,[3],1.93 µM
same,IC50,[4],< 0.0316 µM
same,"viability, T/C","second compound 0.00316 µM, first compound 0.0316 µM",96.5%
same,"viability, T/C","second compound 0.00316 µM, first compound 0.1 µM",88.1%
same,"viability, T/C","second compound 0.00316 µM, first compound 0.316 µM",116%
same,"viability, T/C","second compound 0.00316 µM, first compound 1 µM",89.8%
same,"viability, T/C","second compound 0.00316 µM, first compound 3.16 µM",74%
same,"viability, T/C","second compound 0.00316 µM, first compound 10 µM",1.86%
same,"viability, T/C","second compound 0.01 µM, first compound 0.0316 µM",85.4%
same,"viability, T/C","second compound 0.01 µM, first compound 0.1 µM",77.2%
same,"viability, T/C","second compound 0.01 µM, first compound 0.316 µM",95.1%
same,"viability, T/C","second compound 0.01 µM, first compound 1 µM",96.9%
same,"viability, T/C","second compound 0.01 µM, first compound 3.16 µM",71%
same,"viability, T/C","second compound 0.01 µM, first compound 10 µM",1.5%
same,"viability, T/C",[5],86.2%
same,"viability, T/C",[6],82%
same,"viability, T/C",[7],98.2%
same,"viability, T/C",[8],86%
same,"viability, T/C",[9],75.8%
same,"viability, T/C",[10],2.64%
same,"viability, T/C",[11],68.3%
same,"viability, T/C",[12],70.7%
same,"viability, T/C",[13],84.6%
same,"viability, T/C",[14],72.1%
same,"viability, T/C",[15],74.5%
same,"viability, T/C",[16],2.65%
same,"viability, T/C",[17],55.8%
same,"viability, T/C",[18],55.2%
same,"viability, T/C",[19],53.7%
same,"viability, T/C",[20],54.4%
same,"viability, T/C",[21],46.8%
same,"viability, T/C",[22],1.04%
same,"viability, T/C",[23],36.3%
same,"viability, T/C",[24],35.2%
same,"viability, T/C",[25],36.8%
same,"viability, T/C",[26],34.2%
same,"viability, T/C",[27],35%
same,"viability, T/C",[28],1.55%
C#Cc1c(F)ccc2cc(O)cc(-c3ncc4c(N5CC6CCC(C5)N6)nc(OCC56CCCN5CC(F)C6)nc4c3F)c12 (stereo unspecified),"viability, T/C",compound 0.0316 µM,110% [middle of 4 runs]
same,"viability, T/C",compound 0.1 µM,101% (2×) and 94.4% and 83.5%
same,"viability, T/C",compound 0.316 µM,109% [middle of 4 runs]
same,"viability, T/C",compound 1 µM,103% [middle of 4 runs]
same,"viability, T/C",compound 3.16 µM,109% [middle of 4 runs]
same,"viability, T/C",compound 10 µM,114% (2×) and 107% and 112%
same,IC50,curve of compound,> 10 µM
